molecular target: T1, pSTAT3 (pY705-STAT3) (Homo sapiens, UniProt P40763); assay: MSD-pSTAT-PBMC Assay (pSTAT3, IL-6 stimulated); type: cell-based; conditions: not given
T1 construct: host or cells: cryopreserved PBMC
Description: Cryopreserved Peripheral Blood Mononuclear Cells (PBMC) are from AllCells. Recombinant Human IL-4 and IL-6 are from Peprotech. Mouse monoclonal anti-STAT3 antibody, rabbit monoclonal anti-pY705-STAT3 antibody, rabbit monoclonal Anti-pY641-STAT6 antibody, and lysis buffer are from Cell Signaling Technology (CST). Mouse monoclonal anti-STAT6 antibody is from BioLegend. Assay plates, blocker, and anti-rabbit secondary antibody are from Meso Scale Discovery (MSD).
Cryopreserved PBMCs were thawed out and allowed to recover overnight in IMDM+10% heat-inactivated FBS prior to plating 50,000 (STAT3) or 25,000 (STAT6) cells per well in 96-well U-bottom tissue culture plates. Cells were treated with compound for 3 hrs, then stimulated with 10 ng/mL IL-6 (STAT3) or 1 ng/mL IL-4 (STAT6) for 10 min. Cells were then spun down and washed with ice-cold PBS prior to lysing the cell pellet with 1× lysis buffer (CST) with 1× HALT protease and phosphatase inhibitor cocktail (Thermo). Lysates were transferred to and incubated overnight at 4° C. with shaking in QuickPlex 96-well high bind assay plates (MSD) pre-coated overnight with 30 μL per well of 0.6 μg/mL mouse monoclonal anti-STAT3 antibody (STAT3) or 2 μg/mL mouse monoclonal anti-STAT6 antibody (STAT6) in 1×PBS, and pre-blocked for 1 hour with 3% Blocker-A (MSD). Captured protein in the assay plates were then washed and probed with 25 μL per well of 0.25 μg/ml rabbit monoclonal anti-pY705-STAT3 antibody (STAT3) or 0.18 μg/ml rabbit monoclonal Anti-pY641-STAT6 antibody (STAT6) in 1% Blocker-A for 1 hour at room temperature with shaking, then washed and probed with 25 ul per well of 1 ug/mi Sulfo-TAG Labeled Goat Anti-Rabbit Antibody (MSD) in 1% Blocker-A for 1 hour at room temperature with shaking. Assay plates were then washed and 150 μL of 1× Read Buffer-T (MSD) was added to each well prior to reading on an SQ120 MSD Plate Reader. Assay signal from each sample was subtracted by the signal from unstimulated control wells and normalized to DMSO control wells. IC50 values were calculated using Graph Pad Prism Dose-Response Nonlinear Regression with variable slope. For both pSTAT3 and pSTAT6 A=≤100 nM; B=>100-1000 nM; C=>1000-3000 nM; and D=>3 μM.

T1 sequence (P40763 whole entry): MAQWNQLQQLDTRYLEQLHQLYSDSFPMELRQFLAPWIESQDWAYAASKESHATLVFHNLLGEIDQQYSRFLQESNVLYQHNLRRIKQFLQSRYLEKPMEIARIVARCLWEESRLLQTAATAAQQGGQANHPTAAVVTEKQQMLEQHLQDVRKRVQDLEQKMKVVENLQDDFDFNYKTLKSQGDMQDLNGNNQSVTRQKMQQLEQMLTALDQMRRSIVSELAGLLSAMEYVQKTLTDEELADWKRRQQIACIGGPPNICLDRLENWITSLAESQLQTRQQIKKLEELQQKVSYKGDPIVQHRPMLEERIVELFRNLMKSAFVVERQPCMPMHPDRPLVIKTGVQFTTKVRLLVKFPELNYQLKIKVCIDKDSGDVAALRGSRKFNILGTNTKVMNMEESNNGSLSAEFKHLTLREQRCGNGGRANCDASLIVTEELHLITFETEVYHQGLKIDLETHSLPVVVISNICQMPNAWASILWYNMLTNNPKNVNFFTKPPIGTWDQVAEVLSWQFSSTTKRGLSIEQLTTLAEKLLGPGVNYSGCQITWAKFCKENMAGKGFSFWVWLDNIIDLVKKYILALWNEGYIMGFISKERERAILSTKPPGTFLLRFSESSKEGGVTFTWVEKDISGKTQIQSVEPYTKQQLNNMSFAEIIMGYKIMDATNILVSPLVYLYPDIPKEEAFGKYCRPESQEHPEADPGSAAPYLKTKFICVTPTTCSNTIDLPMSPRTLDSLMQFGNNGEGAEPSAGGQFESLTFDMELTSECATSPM

Row | SMILES | IC50 [nM]
1 | CCCOC(=O)[C@H](C)NP(=O)(Cc1ccc2sc(C(=O)N[C@H]3C[C@H]4C[C@H]4CC4CC[C@@H](C(=O)N[C@H]5CN(C(C)=O)C[C@@H]5F)N4C3=O)cc2c1)Oc1ccccc1 (stereo partly drawn) [Compound 245, propyl(((2-(((3S,6S,7aR,8aS,9aR)-3-(((3S,4S)-1-acetyl-4-fluoropyrrolidin-3-yl)carbamoyl)-5-oxodecahydro-1H-cyclopropa[d]pyrrolo[1,2-a]azocin-6-yl)carbamoyl)benzo[b]thiophen-5-yl)methyl)(phenoxy)phosphoryl)-L-alaninate] | 1000 to 3000
2 | CCCOC(=O)[C@H](C)NP(=O)(Cc1ccc2sc(C(=O)N[C@H]3C[C@H]4C[C@H]4C[C@H]4CC[C@@H](C(=O)N5CC(c6cnccc6F)C5)N4C3=O)cc2c1)Oc1ccccc1 (stereo partly drawn) [Compound 251, propyl(((2-(((3S,6S,7aR,8aS,9aR)-3-(3-(4-fluoropyridin-3-yl)azetidine-1-carbonyl)-5-oxodecahydro-1H-cyclopropa[d]pyrrolo[1,2-a]azocin-6-yl)carbamoyl)benzo[b]thiophen-5-yl)methyl)(phenoxy)phosphoryl)-L-alaninate] | < 100
3 | CCCOC(=O)[C@H](C)NP(=O)(Oc1ccccc1)C(F)c1ccc2sc(C(=O)N[C@H]3C[C@H]4C[C@H]4C[C@H]4CC[C@@H](C(=O)N[C@H]5CN(C(C)=O)C[C@@H]5F)N4C3=O)cc2c1 (stereo partly drawn) [Compound 255, propyl(((2-(((3S,6S,7aR,8aS,9aR)-3-(((3S,4S)-1-acetyl-4-fluoropyrrolidin-3-yl)carbamoyl)-5-oxodecahydro-1H-cyclopropa[d]pyrrolo[1,2-a]azocin-6-yl)carbamoyl)benzo[b]thiophen-5-yl)fluoromethyl)(phenoxy)phosphoryl)-L-alaninate] | 100 to 1000

same assay, conditions: PBMC, compound 3 hrs, then 10 ng/mL IL-6 for 10 min; MSD pY705-STAT3; read-out: pSTAT3

Row | SMILES | IC50 [nM]
4 | Cn1cnnc1C1CN(C(=O)[C@@H]2CC[C@@H]3C[C@@H]4C[C@@H]4C[C@H](NC(=O)c4cc5cc(C(F)(F)P(=O)(OCCSC(=O)C(C)(C)C)OCCSC(=O)C(C)(C)C)ccc5s4)C(=O)N32)C1 [Compound 201, S,S′-((((difluoro(2-(((3S,6S,7aR, 8aS,9aR)-3-(3-(4-methyl-4H-1,2,4-triazol-3-yl)azetidine-1-carbonyl)-5-oxodecahydro-1H-cyclopropa[d]pyrrolo[1,2-a]azocin-6-yl)carbamoyl)benzo[b]thiophen-5-yl)methyl)phosphoryl)bis(oxy))bis(ethane-2,1-diyl)) bis(2,2-dimethyl-propanethioate)] | < 100
5 | COC(=O)[C@H](C)NP(=O)(Cc1ccc2sc(C(=O)N[C@H]3C[C@@H]4C[C@@H]4C[C@H]4CC[C@@H](C(=O)N5CC(C(=O)N6CCOCC6)C5)N4C3=O)cc2c1)Oc1ccccc1 (stereo partly drawn) [Compound 216, methyl (((2-(((3S,6S,7aS, 8aR,9aR)-3-(3-(morpholine-4-carbonyl)azetidine-1-carbonyl)-5-oxodecahydro-1H-cyclopropa [d]pyrrolo[1,2-a]azocin-6-yl)carbamoyl)benzo[b]thiophen-5-yl)methyl) (phenoxy)phosphoryl)-L-alaninate] | 100 to 1000
6 | CCCOC(=O)[C@H](C)NP(=O)(Cc1ccc2sc(C(=O)N[C@H]3C[C@@H]4C[C@@H]4C[C@H]4CC[C@@H](C(=O)N5CC(C(=O)N6CCOCC6)C5)N4C3=O)cc2c1)Oc1ccccc1 (stereo partly drawn) [Compound 217, propyl (((2-(((3S,6S,7aS, 8aR,9aR)-3-(3-(morpholine-4-carbonyl)azetidine-1-carbonyl)-5-oxodecahydro-1H-cyclopropa[d]pyrrolo[1,2-a]azocin-6-yl)carbamoyl)benzo[b]thiophen-5-yl)methyl) (phenoxy)phosphoryl)-L-alaninate] | 100 to 1000
7 | CC(C)(C)C(=O)SCCOP(=O)(OCCSC(=O)C(C)(C)C)C(F)(F)c1ccc2ccc(C(=O)N[C@H]3C[C@@H]4C[C@@H]4C[C@H]4CC[C@@H](C(=O)N5CC(n6ccnc6)C5)N4C3=O)cc2c1 [Compound 221, S,S′-(((((7-(((3S,6S,7aS, 8aR,9aR)-3-(3-(1H-imidazol-1-yl)azetidine-1-carbonyl)-5-oxodecahydro-1H-cyclopropa[d]pyrrolo[1,2-a]azocin-6-yl)carbamoyl)naphthalen-2-yl)difluoromethyl)phosphoryl)bis(oxy))bis(ethane-2,1-diyl)) bis(2,2-dimethyl-propanethioate)] | < 100
8 | CC(C)OC(=O)OCOP(=O)(Cc1ccc2sc(C(=O)N[C@H]3C[C@H]4C[C@H]4C[C@H]4CC[C@@H](C(=O)N[C@@H]5CCN(c6cccnc6)C5)N4C3=O)cc2c1)OCOC(=O)OC(C)C [Compound 226, diisopropyl (((((2-(((3S,6S,7aR, 8aS,9aR)-5-oxo-3-(((R)-1-(pyridin-3-yl)pyrrolidin-3-yl)carbamoyl)decahydro-1H-cyclopropa[d]pyrrolo[1,2-a]azocin-6-yl)carbamoyl)benzo[b]thiophen-5-yl)methyl)phosphoryl)bis(oxy))bis(methylene)) bis(carbonate)] | < 100
9 | CC(C)(C)C(=O)SCCOP(=O)(OCCSC(=O)C(C)(C)C)C(F)(F)c1ccc2sc(C(=O)N[C@H]3C[C@@H]4C[C@@H]4C[C@H]4CC[C@@H](C(=O)N5CC(F)(c6ccc(C#N)cc6)C5)N4C3=O)cc2c1 [Compound 227, S,S′-(((((2-(((3S,6S,7aS, 8aR,9aR)-3-(3-(4-cyanophenyl)-3-fluoroazetidine-1-carbonyl)-5-oxodecahydro-1H-cyclopropa[d]pyrrolo[1,2-a]azocin-6-yl)carbamoyl)benzo[b]thiophen-5-yl)difluoromethyl)phosphoryl)bis(oxy))bis(ethane-2,1-diyl)) bis(2,2-dimethyl-propanethioate)] | < 100
10 | CC(C)CC(=O)SCCOP(=O)(OCCSC(=O)CC(C)C)C(F)(F)c1ccc2sc(C(=O)N[C@H]3C[C@@H]4C[C@@H]4C[C@H]4CC[C@@H](C(=O)N5CC(c6ncccn6)C5)N4C3=O)cc2c1 [Compound 229, S,S′-((((difluoro(2-(((3S,6S,7aS, 8aR,9aR)-5-oxo-3-(3-(pyrimidin-2-yl)azetidine-1-carbonyl)decahydro-1H-cyclopropa[d]pyrrolo[1,2-a]azocin-6-yl)carbamoyl)benzo[b]thiophen-5-yl)methyl)phosphoryl)bis(oxy))bis(ethane-2,1-diyl)) bis(3-methylbutane thioate)] | < 100
11 | CCCOC(=O)[C@H](C)NP(=O)(Oc1ccccc1)C(F)c1ccc2sc(C(=O)N[C@H]3C[C@H]4C[C@H]4C[C@H]4CC[C@@H](C(=O)N5CC(c6cnccc6F)C5)N4C3=O)cc2c1 (stereo partly drawn) [Compound 249, propyl ((fluoro(2-(((3S,6S,7aR,8aS,9aR)-3-(3-(4-fluoropyridin-3-yl)azetidine-1-carbonyl)-5-oxodecahydro-1H-cyclopropa[d]pyrrolo[1,2-a]azocin-6-yl)carbamoyl)benzo[b]thiophen-5-yl)methyl)(phenoxy)phosphoryl)-L-alaninate] | < 100
12 | CCCOC(=O)[C@H](C)NP(=O)(Oc1ccccc1)C(F)c1ccc2sc(C(=O)N[C@H]3C[C@@H]4C[C@@H]4C[C@H]4CC[C@@H](C(=O)N5CC(c6cnccc6F)C5)N4C3=O)cc2c1 (stereo partly drawn) [Compound 263, propyl ((fluoro(2-(((3S,6S,7aS,8aR,9aR)-3-(3-(4-fluoropyridin-3-yl)azetidine-1-carbonyl)-5-oxodecahydro-1H-cyclopropa[d]pyrrolo[1,2-a]azocin-6-yl)carbamoyl)benzo[b]thiophen-5-yl)methyl)(phenoxy)phosphoryl)-L-alaniante] | < 100
13 | CCCOC(=O)[C@H](C)NP(=O)(Cc1ccc2sc(C(=O)N[C@H]3C[C@@H]4C[C@@H]4C[C@H]4CC[C@@H](C(=O)N5CC(c6cnccc6F)C5)N4C3=O)cc2c1)Oc1ccccc1 (stereo partly drawn) [Compound 264, propyl (((2-(((3S,6S,7aS,8aR,9aR)-3-(3-(4-fluoropyridin-3-yl)azetidine-1-carbonyl)-5-oxodecahydro-1H-cyclopropa[d]pyrrolo[1,2-a]azocin-6-yl)carbamoyl)benzo[b]thiophen-5-yl)methyl)(phenoxy)phosphoryl)-L-alaninate] | < 100
14 | CCCOC(=O)[C@H](C)NP(=O)(Oc1ccccc1)C(F)c1ccc2sc(C(=O)N[C@H]3C[C@H]4C[C@H]4C[C@H]4CC[C@@H](C(=O)N[C@H]5CN(c6cccnc6)C[C@@H]5F)N4C3=O)cc2c1 (stereo partly drawn) [Compound 268, propyl ((fluoro(2-(((3S,6S,7aR,8aS,9aR)-3-(((3S,4S)-4-fluoro-1-(pyridin-3-yl)pyrrolidin-3-yl)carbamoyl)-5-oxodecahydro-1H-cyclopropa[d]pyrrolo[1,2-a]azocin-6-yl)carbamoyl)benzo[b]thiophen-5-yl)methyl)(phenoxy)phosphoryl)-L-alaninate] | < 100

Source: patent US20250215030A1, “STAT MODULATORS AND USES THEREOF” (Recludix Pharma, Inc., priority 2022, published 2025)
